Measurements reported in PubChem BioAssay (NCI).
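Results reflect a 48-hour exposure of cells in 96-well plates to compound at five concentrations. GI50: concentration for 50% inhibition of growth. TGI: total growth inhibition.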

Key:
Experiment in all cases: NCI-60 cell line screen, 48 h
786-0 renal = system: 786-0 renal
A498 renal = system: A498 renal
A549 NSCLC = system: A549 NSCLC
ACHN renal = system: ACHN renal
BT-549 breast = system: BT-549 breast
CAKI-1 renal = system: CAKI-1 renal
CCRF-CEM leukemia = system: CCRF-CEM leukemia
COLO 205 colon = system: COLO 205 colon
DU-145 prostate = system: DU-145 prostate
EKVX NSCLC = system: EKVX NSCLC
HCC-2998 colon = system: HCC-2998 colon
HCT-116 colon = system: HCT-116 colon
HCT-15 colon = system: HCT-15 colon
HL-60(TB) leukemia = system: HL-60(TB) leukemia
HOP-62 NSCLC = system: HOP-62 NSCLC
HOP-92 NSCLC = system: HOP-92 NSCLC
HS 578T breast = system: HS 578T breast
HT29 colon = system: HT29 colon
IGROV1 ovarian = system: IGROV1 ovarian
K-562 leukemia = system: K-562 leukemia
KM12 colon = system: KM12 colon
LOX IMVI melanoma = system: LOX IMVI melanoma
M14 melanoma = system: M14 melanoma
MALME-3M melanoma = system: MALME-3M melanoma
MCF7 breast = system: MCF7 breast
MDA-MB-231 breast = system: MDA-MB-231 breast
MDA-MB-435 = system: MDA-MB-435
MOLT-4 leukemia = system: MOLT-4 leukemia
NCI-H226 lung = system: NCI-H226 lung

`COc1cc(/C=C/C(=O)c2cc(OC)c(OC)c(OC)c2)ccc1OCc1ccccc1` was tested, and the GI50 (786-0 renal) was 4.71 µM, the TGI (786-0 renal) was > 100 µM and the GI50 (A498 renal) was 15.8 µM. For the same compound, the TGI (A498 renal) was 58.9 µM, the GI50 (A549 NSCLC) was 2.77 µM and the TGI (A549 NSCLC) was > 100 µM. The GI50 (ACHN renal) was 2.16 µM, the TGI (ACHN renal) was 5.75 µM and the GI50 (BT-549 breast) was 1.83 µM. For the same compound, the TGI (BT-549 breast) was 3.9 µM, the GI50 (CAKI-1 renal) was 4.11 µM and the TGI (CAKI-1 renal) was > 100 µM. For the same compound, the GI50 (CCRF-CEM leukemia) was 3 µM, the TGI (CCRF-CEM leukemia) was > 100 µM and the GI50 (COLO 205 colon) was 3.34 µM. The TGI (COLO 205 colon) was 26.2 µM, the GI50 (DU-145 prostate) was 3.55 µM and the TGI (DU-145 prostate) was > 100 µM. For the same compound, the GI50 (EKVX NSCLC) was 4.33 µM, the TGI (EKVX NSCLC) was 51.6 µM and the GI50 (HCC-2998 colon) was 2.8 µM. For the same compound, the TGI (HCC-2998 colon) was 7.91 µM, the GI50 (HCT-116 colon) was 2.73 µM and the TGI (HCT-116 colon) was > 100 µM. It also gave a GI50 (HCT-15 colon) of 1.75 µM, a TGI (HCT-15 colon) of 5.28 µM and a GI50 (HL-60(TB) leukemia) of 2.14 µM. The TGI (HL-60(TB) leukemia) was 7.61 µM, the GI50 (HOP-62 NSCLC) was 3.49 µM and the TGI (HOP-62 NSCLC) was 43.4 µM. It also gave a GI50 (HOP-92 NSCLC) of 1.88 µM, a TGI (HOP-92 NSCLC) of 7.57 µM and a GI50 (HS 578T breast) of 4.06 µM. The TGI (HS 578T breast) was > 100 µM, the GI50 (HT29 colon) was 2.66 µM and the TGI (HT29 colon) was > 100 µM. The GI50 (IGROV1 ovarian) was 3.06 µM, the TGI (IGROV1 ovarian) was > 100 µM and the GI50 (K-562 leukemia) was 2.59 µM. For the same compound, the TGI (K-562 leukemia) was > 100 µM, the GI50 (KM12 colon) was 3.6 µM and the TGI (KM12 colon) was > 100 µM. It also gave a GI50 (LOX IMVI melanoma) of 1.69 µM, a TGI (LOX IMVI melanoma) of 4.09 µM and a GI50 (M14 melanoma) of 4.77 µM. For the same compound, the TGI (M14 melanoma) was > 100 µM, the GI50 (MALME-3M melanoma) was 5.08 µM and the TGI (MALME-3M melanoma) was > 100 µM. For the same compound, the GI50 (MCF7 breast) was 2.53 µM, the TGI (MCF7 breast) was > 100 µM and the GI50 (MDA-MB-231 breast) was 2.83 µM. The TGI (MDA-MB-231 breast) was > 100 µM, the GI50 (MDA-MB-435) was 3.2 µM and the TGI (MDA-MB-435) was > 100 µM. The GI50 (MOLT-4 leukemia) was 3.01 µM, the TGI (MOLT-4 leukemia) was 73.4 µM and the GI50 (NCI-H226 lung) was 4.16 µM.
